Here are results for 1 substance from paper PMC7648750, “In vitro and in vivo BNCT investigations using a carborane containing sulfonamide targeting CAIX epitopes on malignant pleural mesothelioma and breast cancer cells” (Scientific Reports, 2020).

The subject of one series is AB22 cells. In words: Proliferation assay of cells surviving irradiation. It counts as cell-based, mouse. The following applies: AB22, 130 µM CA-SF before neutron irradiation. Here is the method:
75 flasks of MCF7 (4 flasks), ZL34 (4 flasks) and AB22 (4 flasks) were seeded at a density of 1.8 × 10^6 cells, 1.2 × 10^6 cells and 5.5 × 10^5 cells, respectively. 24 h later for MCF7 and ZL34 and 72 h later for AB22, 2 flasks of each cell lines were incubated for 24 h in the presence of 72 µM, 187.5 µM and 130 µM of CA-SF, respectively. After the incubation, cells were washed with PBS and their medium was renewed. Two flasks of MCF7, ZL34 and AB22 cells incubated with CA-SF and two flasks containing non-treated control cells were irradiated for 15′ at 30 kW reactor power in the thermal column of the TRIGA Mark II reactor at the University of Pavia, Italy. […]
Then, around 7 × 10^5 MCF7, 3.5 × 10^5 ZL34 and 1 × 10^5 AB22 cells from each differently treated flask were seeded in 10 cm diameter culture dishes. […] Then, cells were sonicated for 30 s at 30% power in ice and the total cell protein concentration (that is proportional to the number of cells) from cell lysates was determined by the Bradford method, using bovine serum albumin as a standard. The Cell Growth Rate was calculated as follows: Number of cellsti-Number of cellst0/Number of cellst0×100 for which Number of cells (ti) is the number of cells measured at the various time intervals and the number of cells (t0) is the number of cells at the starting point (t = 0) of the proliferation assay.

The subject of series [1] is MCF7 cells. The series can be described thus: BNCT in vitro: viable cells 24 h after neutron irradiation (trypan blue). Format: cell-based, human. The settings on record: MCF7, 72 µM 24 h, thermal neutrons 15 min 30 kW, 24 h after irradiation. Here is the method:
(§1) 75 flasks of MCF7 (4 flasks), ZL34 (4 flasks) and AB22 (4 flasks) were seeded at a density of 1.8 × 10^6 cells, 1.2 × 10^6 cells and 5.5 × 10^5 cells, respectively. 24 h later for MCF7 and ZL34 and 72 h later for AB22, 2 flasks of each cell lines were incubated for 24 h in the presence of 72 µM, 187.5 µM and 130 µM of CA-SF, respectively. After the incubation, cells were washed with PBS and their medium was renewed. Two flasks of MCF7, ZL34 and AB22 cells incubated with CA-SF and two flasks containing non-treated control cells were irradiated for 15′ at 30 kW reactor power in the thermal column of the TRIGA Mark II reactor at the University of Pavia, Italy. At the end of the irradiation, the medium was removed, it was replaced with fresh medium and flasks were placed at 37 °C in a humidified atmosphere of 5% CO2.
(§2) The proliferation assay was carried out following the same procedure reported in reference 32. The day after irradiation cells were detached with 0.05% trypsin and 0.02% EDTA and the trypan blue exclusion test of cell viability was performed. Cell viability was reported as percentage of cells observed in treated a/o irradiated samples relative to that observed in control cells.

Series [2] has as its system ZL34 cells. The series is described as above. Format: cell-based, human. The following applies: ZL34, 187.5 µM 24 h, thermal neutrons 15 min 30 kW, 24 h after irradiation. Here is the method: as §1, §2
Series [3] in a line: Mice weight monitoring after treatment. Format: in vivo, Balb/c mice. Here is the method: CA-SF treatment on mesothelioma bearing mice, were performed in the thermal column of the TRIGA Mark II reactor at Pavia University (Italy) using the same protocol reported in reference^35. The irradiation facility was previously designed for TAOrMINA treatment developed to treat multiple liver metastases with BNCT. The chamber used to perform animal irradiation has a cross section of 40 × 20 cm^2, a length of 1 m and it starts at about 1.3 m from the center of the reactor core. The animal irradiation position has been characterised in terms of neutron spectrum and background photon dose[43]. To carry out neutron irradiation animals are positioned at the end of this chamber where the in air thermal neutron flux is approximately 1.2 × 10^10 n/cm^2s, operating the reactor at its maximum power. In this way the thermal neutron flux is maximised and the irradiation time is kept as short as possible (never longer than 15 min). The first mice group (irradiated and treated group, n = 5) received three doses of CA-SF/poli β cyclodextrin (37.5 mg boron/kg dose) prepared as described before. […]
The weight of IRR, CA-SF and CA-SF + IRR groups was monitored till the end of the experiment (Supplementary Figure S1).

The test system of series [4] is MCF7 cells. The series can be described thus: Cell uptake of boron (ICP-MS). Format: cell-based, human. The settings on record: MCF7, 72 µM CA-SF in culture medium, 24 h, 37 °C. Here is the method:
(§3) For the in vitro uptake experiments, 6 × 10^5 MCF7, 4.5 × 10^5 ZL34 and 2 × 10^5 AB22 were seeded in 6 cm of diameter dishes. After 24 h for MCF7 and ZL34 and after 72 h for AB22, the cells were incubated for 24 h with increasing concentration of CA-SF. All the incubations were performed in condition of normoxia at 37 °C, 5% CO2. At the end of the incubation, cells were washed three times with 3 ml ice-cold PBS and detached with 0.05% trypsin and 0.02% EDTA. Finally, all cell samples were transferred in falcon tubes and sonicated at 30% of power for 30 s in ice. The boron content of each cell sample lysates was determined by ICP-MS technique (see below). The milligrams of proteins, proportional to the number of cells, of each cell sample lysate, was evaluated by the Bradford assay (Biorad) using bovine serum albumin as a standard.
(§4) Boron content from cell samples, mice organs, plasma and tumours were determined using inductively coupled plasma mass spectrometry (ICP-MS) (Element-2; Thermo-Finnigan, Rodano (MI), Italy).
(§5) Sample digestion was performed using a high performance Microwave Digestion System (ETHOS UP Milestone, Bergamo, Italy) after the addition of concentrated HNO3 (70%) to cell lysates (1:1), in a final volume of 0.4 mL. […] The amounts of boron µg /g tissue were thus calculated considering that 1 g of tissue contains 1 × 10^9 cells.

Series [5] relates to ZL34 cells. In words: Cell uptake of boron (ICP-MS). Format: cell-based, human. The following applies: ZL34, 187.5 µM CA-SF in culture medium, 24 h, 37 °C. Here is the method:
as §3, §4, §5

Regarding 1-Sulfonamidomethyl-o-carborane [CA-SF], the “proliferation rate of cells surviving to irradiation” value in the series on AB22 cells is listed as “marked inhibition of proliferation”. The figures for the “viability of CA-SF treated and irradiated cells vs CA-SF treated cells” value in the series on MCF7 cells [1] and in the series with ZL34 cells [2] were “significantly reduced” and “comparable”, respectively. For the same substance, in series [3] (treated and irradiated mice, CA-SF three doses + 15 min irradiation 250 kW), the “loss of initial weight” value came to 10%. For the same substance, the “weight decrease at the end of the study” value in series [3] (treated mice (CA-SF, not irradiated)) is reported as 5%. Also, the “boron loaded into the target cells” value in the series on MCF7 cells [4] came out at 60 µg/g; in the series with ZL34 cells [5] it was 90 µg/g.
